One experiment deals with H1650 cells. It counts as cell-based. The procedure:
IC50 (half maximal inhibitory concentration; μM) values in lung cancer cells. […] The residues marked in red/bold are D-isoforms of amino acids (SEQ ID NOS: 57, 48-54, 40-42 45 and 47 in order of appearance).
Molecular basis of MPS peptide and its potential for increasing nintedanib efficacy. […] A kinetic assay confirmed that this peptide binds PIP2 with a dissociation constant of 17.64 nM (FIG. 10B). As expected, a decrease of PIP3 pools in whole cell lysates of MPS-treated IPF fibroblasts was observed (FIG. 10C), supporting the notion that MPS peptide is able to inhibit AKT activation through trapping PIP2. In view of adverse effects of the current IPF therapeutic nintedanib^9, 10, there is an urgent clinical need to improve the efficacy of such treatment in IPF. Since the TGF-β receptor is not a direct target of nintedanib, targeting an element of TGF-β signaling in tandem with nintedanib administration circumvents the shortcomings of nintedanib monotherapy. […] Based on the above observations, it is assumed that TGF-β-directed phospho-MARCKS is a bypass mechanism of activating PI3K/AKT signaling (FIG. 11B); therefore, it seems reasonable that MARCKS inhibition by MPS treatment may improve nintedanib efficacy, permitting lower doses of nintedanib to be used. To this end, the possibility of a synergistic interaction between MPS and nintedanib in order to circumvent the shortcomings of nintedanib monotherapy was tested. […] Furthermore, the Chou and Talalay CI (combination index) method^25 was used to evaluate the therapeutic interactions between nintedanib and MPS peptide. […] Particularly, the values were lower than 1 at ED50, approximately 1 at ED75, and above 1 at ED90 (data not shown). Thus, the combination effect was dose-dependently correlated with the components, and therefore low dose nintedanib in combination with low dose of MPS presents a synergistic effect on cell proliferation. […] On the basis of the sequences of MPS peptide, the rearrangement of PIP2-binding sites in this peptide were designed and synthesized with the intention of enhancing the efficacy and stability of the MPS peptide. FIG. 13 lists the sequences of various MPS derivatives. In light of the cleavage sites of various proteases and PIP2 binding motifs, Applicant replaced some L-isoform amino acids with D-isoform and these peptides were named as MPS-12042 and MPS-22026. To further validate the efficacy of the above MPS derivatives, Applicant performed a dose-course analysis of H1650 cells undergoing each MPS derivative treatment.

The test system of a further experiment is normal fibroblasts. Nature of the experiment: Normal lung fibroblast proliferation (MTS/MTT assay). To be noted: 1 μM. It counts as cell-based, human. The procedure:
(§1) FIG. 14: Comparison of MPS-12042 (SEQ ID NO: 45) versus know tyrosine kinase inhibitor (TKLs) on the treatment of IPF fibroblast cells. Both normal and IPF lung fibroblast cells were treated with various drugs. After 72 hours, cells were subjected to MTT assays and IC50 for each drug was determined.
Human primary fibroblast cells were obtained from airway tissues provided from the UC Davis Medical Hospital (Sacramento, Calif.) with consent. The protocol for human tissue procurement and usage were periodically reviewed and approved by the University Human Subject Research Review Committee. Primary fibroblast cell lines, IPF-1 and IPF-2 cells, were established from IPF patients. […]
Cells were seeded onto 96-well plates at a density of 5-10×10^3 cells per well and cultured for the indicated treatment. Cell proliferation was evaluated using a MTS assay kit (Promega, Madison, Wis.). Twenty microliters of the combined MTS/PMS solution was added into each well, incubated for 3 hours at 37° C., and the absorbance was measured at 490 nm by using an ELISA reader. […] After 72 hours, both attached and detached cells were collected and then stained with 0.2% trypan blue (0.1% final concentration), and the number of trypan blue-positive and -negative cells was counted using a haemocytometer under low-power microscopy. […]
(Formazan colour is commonly taken as a measure of viable cells.)

The next experiment relates to IPF fibroblast cells. Nature of the experiment: cells. It counts as cell-based, human. The procedure: as §1
Human primary fibroblast cells were obtained from airway tissues provided from the UC Davis Medical Hospital (Sacramento, Calif.) with consent. The protocol for human tissue procurement and usage were periodically reviewed and approved by the University Human Subject Research Review Committee. Primary fibroblast cell lines, IPF-1 and IPF-2 cells, were established from IPF patients. Cells were obtained from lung biopsies and the diagnosis of IPF was supported by patient history, physical examination, pulmonary function tests, and typical high-resolution chest computed tomography findings of IPF. […] All patients fulfilled the criteria for the diagnosis of IPF as established by the American Thoracic Society and European Respiratory Society. Non-fibrotic primary control adult human lung fibroblast lines, Normal-1 and Normal-2 cells were used. These lines were established from normal lung tissue or histologically normal lung tissue adjacent to carcinoid tumor. The IPF cell line, LL97A, was purchased from the American Type Culture Collection (ATCC) (Manassas, Va.). Lung fibroblast lines were cultured in high-glucose DMEM or RPMI-1640 medium with 10% fetal bovine serum and 1% penicillin-streptomycin at 37° C. in a humidified atmosphere of 5% CO2. Fibroblasts were used between passages 4 and 8. Cells were characterized as fibroblasts as described^26.
Cells were seeded onto 96-well plates at a density of 5-10×10^3 cells per well and cultured for the indicated treatment. Cell proliferation was evaluated using a MTS assay kit (Promega, Madison, Wis.). Twenty microliters of the combined MTS/PMS solution was added into each well, incubated for 3 hours at 37° C., and the absorbance was measured at 490 nm by using an ELISA reader. For Trypan blue test, cells were plated on 12-well plates and treated with the indicated chemotherapeutic agents. After 72 hours, both attached and detached cells were collected and then stained with 0.2% trypan blue (0.1% final concentration), and the number of trypan blue-positive and -negative cells was counted using a haemocytometer under low-power microscopy. For colony-forming assays, 200 cells were seeded in each well of six-well plates. IPF-1 or IPF-2 primary cells were treated with peptides at the indicated concentrations for 10 days. Colonies were stained using 0.001% crystal violet and the number of colonies with a diameter greater than 0.5 mm was counted under an inverted microscope.

Experiment [1] has as its system bleomycin-induced pulmonary fibrosis. Put plainly: Bleomycin-induced pulmonary fibrosis. Format: in vivo, C57BL/6J mice. As to conditions: 7 mg/kg i.p. every two days, against nintedanib (28 mg/kg) and MPS peptide (28 mg/kg). The procedure:
FIGS. 20A and 20B show suppressive effects of MPS peptide on pulmonary fibrosis in vivo. C57BL/6 mice were intraperitoneally given either PBS, nintedanib (28 mg/kg), MPS peptide (28 mg/kg) or MPS-12042 (7 mg/kg) at the dosage of every two days after 9 days of intratracheal exposure with one shot of saline or bleomycin (33 μg in […] of saline, n=5). (FIG. 20A) Representative Masson trichrome and immunohistochemical staining of phospho-MARCKS (Ser159/163) and phospho-AKT (Ser473) (n=6). (FIG. 20B) Hydroxyproline level in the left lung of mice as described above was determined by a hydroxyproline ELISA assay (mean±SD, *p<0.05).
MPS peptide potentially serves as an antifibrotic agent in bleomycin-induced pulmonary fibrosis. Bleomycin remains the standard agent for induction of experimental pulmonary fibrosis in animals^23. Thus, 8-week-old female C57BL/6J mice received saline or bleomycin intratracheally (33 μg in […] of saline) as previously described^23. Lung specimens from bleomycin- or saline-treated mice were collected and subjected to immunofluorescence staining. […] Next, lung fibroblast cells isolated from saline- or bleomycin-treated mice (two mice fibroblast cell lines were gifts from Dr. Sem H. Phan, University of Michigan School of Medicine, MI) were incubated with either 100 μM control or MPS peptide for 48 hours. […]

1 compound from patent US20220267390A1, “MPS MODIFIED PEPTIDES AND USE THEREOF” (The Regents of the University of California, priority 2019, published 2022) can be followed below.

By IC50 is commonly meant the point on the concentration scale where inhibition reaches its midpoint.

Where a SMILES comes first, the peptide text is derived from it. [ ]: non-standard residue; d: D form.

With `CC(C)C[C@@H](NC(=O)[C@@H](CCCCN)NC(=O)[C@@H](Cc1ccccc1)NC(=O)[C@H](C)NC(=O)[C@H](CCCCN)NC(=O)[C@@H](CCCCN)NC(=O)[C@@H](Cc1ccccc1)NC(=O)[C@H](C)NC(=O)[C@@H](Cc1ccccc1)NC(=O)[C@@H](CCCNC(=N)N)NC(=O)[C@H](CCCCN)NC(=O)[C@H](CCCCN)NC(=O)[C@H](CCCCN)NC(=O)[C@H](CCCCN)NC(=O)[C@@H](N)CCCCN)C(=O)N[C@@H](C)C(=O)NCC(=O)N[C@H](Cc1ccccc1)C(=O)N[C@H](C)C(=O)N[C@H](Cc1ccccc1)C(=O)N[C@H](CCCCN)C(=O)N[C@@H](CCCCN)C(=O)N[C@@H](CC(N)=O)C(=O)N[C@H](CCCCN)C(=O)N[C@@H](CCCCN)C(=O)O` [MPS-12042] (H-KKKKK[dR][dF]A[dF][dK]KA[dF][dK][dL]AG[dF][dA][dF][dK]KN[dK]K-OH; N-terminus and C-terminus assumed), the IC50 was 6 µM in the experiment with H1650 cells and 1 to 1.5 µM in the experiment on IPF fibroblast cells (72 h). Moreover, the decreased cell proliferation result in the experiment with normal fibroblasts is given as “not in normal fibroblasts”; in the experiment on IPF fibroblast cells (1 μM, IPF fibroblast), 50%. Further, the “attenuating phospho-MARCKS and phospho-AKT, reducing overall fibrosis and extracellular matrix deposition in mouse lungs” value in experiment [1] was “superior efficacy”.
